Experimental data taken from ChEMBL document CHEMBL3351476, “The discovery of I-BET726 (GSK1324726A), a potent tetrahydroquinoline ApoA1 up-regulator and selective BET bromodomain inhibitor” (J Med Chem, 2014).
≈ marks a conversion by molar mass, not a printed value.

Legend:
[1] = molecular target: Bromodomain-containing protein 2 (Homo sapiens, UniProt P25440); assay: Displacement of biotinylated tetra-acetylated histone H4 from His6-tagged BRD2 (1 to 473 aa) (unknown origin) after 1 hr by TR-FRET assay
Chain of Bromodomain-containing protein 2 (P25440 whole entry, the tested form may be a part): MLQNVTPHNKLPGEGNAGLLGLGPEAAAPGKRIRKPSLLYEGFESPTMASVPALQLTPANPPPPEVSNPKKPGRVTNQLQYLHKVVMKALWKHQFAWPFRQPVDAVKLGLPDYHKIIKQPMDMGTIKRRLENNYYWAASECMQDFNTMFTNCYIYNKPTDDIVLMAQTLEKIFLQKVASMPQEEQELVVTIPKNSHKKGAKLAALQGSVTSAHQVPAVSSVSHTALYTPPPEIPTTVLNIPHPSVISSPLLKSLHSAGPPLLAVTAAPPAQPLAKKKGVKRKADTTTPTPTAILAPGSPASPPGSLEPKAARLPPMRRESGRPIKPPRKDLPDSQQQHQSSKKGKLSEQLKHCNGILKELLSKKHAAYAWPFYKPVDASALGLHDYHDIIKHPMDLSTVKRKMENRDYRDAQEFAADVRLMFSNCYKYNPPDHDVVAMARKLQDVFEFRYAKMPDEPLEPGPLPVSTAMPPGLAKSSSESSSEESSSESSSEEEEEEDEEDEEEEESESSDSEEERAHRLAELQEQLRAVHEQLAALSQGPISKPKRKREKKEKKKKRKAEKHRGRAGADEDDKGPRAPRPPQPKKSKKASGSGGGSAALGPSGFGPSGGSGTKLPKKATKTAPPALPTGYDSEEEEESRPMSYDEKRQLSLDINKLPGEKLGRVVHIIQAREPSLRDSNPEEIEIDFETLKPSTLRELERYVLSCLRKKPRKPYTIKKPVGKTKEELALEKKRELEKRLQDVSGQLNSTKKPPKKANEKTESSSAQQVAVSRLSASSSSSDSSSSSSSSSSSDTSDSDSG

[2] = molecular target: Bromodomain-containing protein 3 (Homo sapiens, UniProt Q15059); assay: Displacement of biotinylated tetra-acetylated histone H4 from His6-tagged BRD3 (1 to 475 aa) (unknown origin) after 1 hr by TR-FRET assay
Chain of Bromodomain-containing protein 3 (Q15059 whole entry, the tested form may be a part): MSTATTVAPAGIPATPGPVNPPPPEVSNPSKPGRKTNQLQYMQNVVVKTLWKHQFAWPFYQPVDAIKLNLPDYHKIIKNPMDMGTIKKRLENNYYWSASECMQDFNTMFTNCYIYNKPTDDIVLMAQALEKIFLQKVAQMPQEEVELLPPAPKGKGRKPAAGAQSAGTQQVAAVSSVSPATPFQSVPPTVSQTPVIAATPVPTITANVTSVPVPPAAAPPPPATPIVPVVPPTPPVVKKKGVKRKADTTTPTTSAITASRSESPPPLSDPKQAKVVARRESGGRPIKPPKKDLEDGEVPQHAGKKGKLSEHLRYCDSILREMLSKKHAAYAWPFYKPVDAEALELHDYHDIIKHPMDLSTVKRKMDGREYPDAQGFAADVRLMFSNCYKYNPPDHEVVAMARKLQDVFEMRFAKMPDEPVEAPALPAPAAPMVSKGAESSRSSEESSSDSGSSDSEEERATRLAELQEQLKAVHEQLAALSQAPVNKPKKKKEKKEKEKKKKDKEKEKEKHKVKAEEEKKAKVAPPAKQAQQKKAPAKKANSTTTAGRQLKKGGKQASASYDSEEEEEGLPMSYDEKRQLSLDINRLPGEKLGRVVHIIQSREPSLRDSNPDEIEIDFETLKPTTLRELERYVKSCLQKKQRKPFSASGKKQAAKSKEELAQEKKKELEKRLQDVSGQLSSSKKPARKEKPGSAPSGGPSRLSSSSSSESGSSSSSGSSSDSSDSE

[3] = molecular target: Bromodomain-containing protein 4 (Homo sapiens, UniProt O60885); assay: Displacement of biotinylated tetra-acetylated histone H4 from His6-tagged BRD4 (1 to 477 aa) (unknown origin) after 1 hr by TR-FRET assay
HepG2 [4] = assay: Upregulation of ApoA1 in human HepG2 cells after 16 hrs by luciferase reporter assay relative to control; assay type: functional
HepG2 [5] = assay: Upregulation of ApoA1 in human HepG2 cells at 10 uM after 16 hrs by luciferase reporter assay relative to control; assay type: functional
HepG2 [6] = assay: Upregulation of ApoA1 in human HepG2 cells at 1.25 uM after 16 hrs by luciferase reporter assay relative to control; assay type: functional
[7] = Solubility of the compound in fasted state simulated intestinal fluid at 125 ug/ml after 16 hrs by HPLC analysis; assay type: ADME; conditions: for solubility at 16 h: fasted state simulated intestinal fluid
PBMC = assay: Inhibition of LPS-induced IL6 production in human PBMC after 18 to 24 hrs by immunoassay; assay type: functional, cell-based
Blood = assay: Inhibition of LPS-induced IL6 production in human whole blood after 24 hrs by immunoassay; assay type: functional, tissue-based
Hepatocyte [8] = assay: Clearance in human hepatocytes assessed per gram of tissue at 1 uM by LC-MS/MS analysis; assay type: ADME, cell-based
Hepatocyte [9] = assay: Clearance in rat hepatocytes assessed per gram of tissue at 1 uM by LC-MS/MS analysis; assay type: ADME, cell-based
[10] = Clearance in dog hepatocytes assessed per gram of tissue at 1 uM by LC-MS/MS analysis; assay type: ADME, cell-based, Canis lupus familiaris, Hepatocyte
[11] = Clearance in Cynomolgus monkey hepatocytes assessed per gram of tissue at 1 uM by LC-MS/MS analysis; assay type: ADME, cell-based, Macaca fascicularis, Hepatocyte
Cytochrome P450 1A2 = Cytochrome P450 1A2 (Homo sapiens, UniProt P05177); assay: Inhibition of CYP1A2 (unknown origin) expressed in Escherichia coli bactosomes using ethoxyresorufin as substrate after 10 mins by fluorescence assay; assay type: ADME
Chain of Cytochrome P450 1A2 (P05177 whole entry): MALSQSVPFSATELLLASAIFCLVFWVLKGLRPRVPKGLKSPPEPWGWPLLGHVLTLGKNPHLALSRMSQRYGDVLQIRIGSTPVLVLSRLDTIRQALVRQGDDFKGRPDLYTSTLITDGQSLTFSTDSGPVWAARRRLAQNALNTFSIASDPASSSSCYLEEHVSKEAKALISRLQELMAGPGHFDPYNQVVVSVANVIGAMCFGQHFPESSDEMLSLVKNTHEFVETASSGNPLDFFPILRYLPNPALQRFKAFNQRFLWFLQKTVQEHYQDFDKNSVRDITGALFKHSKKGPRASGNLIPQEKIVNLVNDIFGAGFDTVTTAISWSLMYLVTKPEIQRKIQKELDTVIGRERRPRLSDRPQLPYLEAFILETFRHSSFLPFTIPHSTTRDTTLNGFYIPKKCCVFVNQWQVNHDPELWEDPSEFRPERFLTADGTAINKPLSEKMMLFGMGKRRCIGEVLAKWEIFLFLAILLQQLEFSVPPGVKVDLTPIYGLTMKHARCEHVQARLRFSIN

Cytochrome P450 2C9 = Cytochrome P450 2C9 (Homo sapiens, UniProt P11712); assay: Inhibition of CYP2C9 (unknown origin) expressed in Escherichia coli bactosomes using 7-methoxy-4-trifluoromethylcoumarin-3-acetic acid as substrate after 10 mins by fluorescence assay; assay type: ADME
Chain of Cytochrome P450 2C9 (P11712 whole entry): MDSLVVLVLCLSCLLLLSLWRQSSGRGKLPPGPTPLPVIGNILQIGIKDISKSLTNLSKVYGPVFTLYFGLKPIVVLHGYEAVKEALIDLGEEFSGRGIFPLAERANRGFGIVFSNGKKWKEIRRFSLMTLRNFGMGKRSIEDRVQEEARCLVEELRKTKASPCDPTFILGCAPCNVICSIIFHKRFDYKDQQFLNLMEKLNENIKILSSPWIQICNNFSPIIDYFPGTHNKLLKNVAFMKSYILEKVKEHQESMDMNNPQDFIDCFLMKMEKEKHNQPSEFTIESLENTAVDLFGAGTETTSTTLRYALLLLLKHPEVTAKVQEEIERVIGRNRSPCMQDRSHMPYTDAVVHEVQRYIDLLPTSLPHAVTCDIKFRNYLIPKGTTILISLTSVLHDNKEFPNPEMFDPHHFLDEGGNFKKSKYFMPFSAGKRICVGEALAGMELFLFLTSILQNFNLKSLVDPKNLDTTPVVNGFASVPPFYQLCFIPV

Cytochrome P450 2C19 = Cytochrome P450 2C19 (Homo sapiens, UniProt P33261); assay: Inhibition of CYP2C19 (unknown origin) expressed in Escherichia coli bactosomes using 3-butyryl-7-methoxycoumarin as substrate after 10 mins by fluorescence assay; assay type: ADME
Chain of Cytochrome P450 2C19 (P33261 whole entry): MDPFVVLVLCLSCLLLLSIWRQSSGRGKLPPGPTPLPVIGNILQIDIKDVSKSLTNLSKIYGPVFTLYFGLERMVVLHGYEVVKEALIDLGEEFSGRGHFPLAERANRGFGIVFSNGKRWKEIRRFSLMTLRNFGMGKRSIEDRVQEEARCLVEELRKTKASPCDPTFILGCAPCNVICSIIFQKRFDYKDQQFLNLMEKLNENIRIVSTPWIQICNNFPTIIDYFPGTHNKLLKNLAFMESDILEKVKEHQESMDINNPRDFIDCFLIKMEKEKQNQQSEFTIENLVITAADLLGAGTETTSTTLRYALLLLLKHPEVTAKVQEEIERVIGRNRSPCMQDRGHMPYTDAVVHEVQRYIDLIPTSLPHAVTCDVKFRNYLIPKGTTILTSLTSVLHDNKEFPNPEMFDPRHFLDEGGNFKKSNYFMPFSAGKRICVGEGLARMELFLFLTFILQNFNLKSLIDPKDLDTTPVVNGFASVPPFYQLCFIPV

Cytochrome P450 2D6 = Cytochrome P450 2D6 (Homo sapiens, UniProt P10635); assay: Inhibition of recombinant human CYP2D6 expressed in Escherichia coli bactosomes using 4-methylaminomethyl-7-methoyxycoumarin as substrate after 10 mins by fluorescence assay; assay type: ADME
Chain of Cytochrome P450 2D6 (P10635 whole entry): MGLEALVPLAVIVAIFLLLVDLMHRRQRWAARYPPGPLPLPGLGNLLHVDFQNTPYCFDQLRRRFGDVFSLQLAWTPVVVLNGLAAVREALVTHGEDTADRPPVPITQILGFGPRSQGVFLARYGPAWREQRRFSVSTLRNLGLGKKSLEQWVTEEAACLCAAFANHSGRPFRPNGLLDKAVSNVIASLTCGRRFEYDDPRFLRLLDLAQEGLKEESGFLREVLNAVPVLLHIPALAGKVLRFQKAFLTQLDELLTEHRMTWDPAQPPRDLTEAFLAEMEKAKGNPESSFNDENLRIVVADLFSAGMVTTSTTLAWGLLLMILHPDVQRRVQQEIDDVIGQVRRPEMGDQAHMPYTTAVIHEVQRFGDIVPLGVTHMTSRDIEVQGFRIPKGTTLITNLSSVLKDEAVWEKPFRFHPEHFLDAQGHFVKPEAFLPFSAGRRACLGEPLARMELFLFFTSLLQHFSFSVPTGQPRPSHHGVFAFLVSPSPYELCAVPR

Cytochrome P450 3A4 [12] = molecular target: T1, Cytochrome P450 3A4 (Homo sapiens, UniProt P08684); assay: Inhibition of human recombinant CYP3A4 expressed in Escherichia coli bactosomes using 7-benzloxyquinolone as substrate after 10 mins by fluorescence assay; assay type: ADME
T1 sequence (P08684 whole entry): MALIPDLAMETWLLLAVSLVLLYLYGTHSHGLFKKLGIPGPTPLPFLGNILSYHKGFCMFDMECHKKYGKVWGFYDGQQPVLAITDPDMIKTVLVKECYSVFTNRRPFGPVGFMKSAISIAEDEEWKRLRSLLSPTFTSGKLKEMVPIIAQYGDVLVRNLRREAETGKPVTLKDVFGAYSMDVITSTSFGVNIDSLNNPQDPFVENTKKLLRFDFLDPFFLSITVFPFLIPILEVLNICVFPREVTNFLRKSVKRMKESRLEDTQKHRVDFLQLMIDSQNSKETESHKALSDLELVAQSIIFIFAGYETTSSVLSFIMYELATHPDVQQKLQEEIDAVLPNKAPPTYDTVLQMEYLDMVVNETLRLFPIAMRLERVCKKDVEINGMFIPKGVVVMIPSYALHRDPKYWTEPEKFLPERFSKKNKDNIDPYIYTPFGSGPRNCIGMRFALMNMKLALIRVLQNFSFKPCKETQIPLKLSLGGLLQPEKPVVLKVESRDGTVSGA

Cytochrome P450 3A4 [13] = molecular target: T1, Cytochrome P450 3A4; assay: Inhibition of human recombinant CYP3A4 expressed in Escherichia coli bactosomes using diethoxyfluorescein as substrate after 10 mins by fluorescence assay; assay type: ADME

What does the source list for `CC(=O)N1c2ccc(-c3ccc(CN4CCCCC4)cc3)cc2[C@H](Nc2ccc(Cl)cc2)C[C@@H]1C` (racemic)?
IC50 [1]: 1 µM; IC50 [2]: 1.26 µM; IC50 [3]: 1 µM; pEC170 (HepG2 [4]): 8

With `COc1cccc(N[C@@H]2C[C@H](C)N(C(C)=O)c3ccc(-c4ccc(C(=O)O)cc4)cc32)c1` (racemic) as the compound, how does the IC50 [1] read?
The IC50 was 0.631 µM.

And the IC50 [2]?
Its IC50 is 0.501 µM.

What about the IC50 [3] of the same compound?
Its IC50 is 0.501 µM.

And the pEC170 (HepG2 [4])?
Its pEC170 is 7.3.

For `CC(=O)N1c2ccc(-c3ccc(C(=O)O)cc3)cc2[C@H](Nc2ccc(C)cc2)C[C@@H]1C` (racemic), which IC50 [1] is on record?
The IC50 was 0.501 µM.

And the IC50 [2]?
The IC50 was 0.316 µM.

And the IC50 [3]?
The IC50 was 0.631 µM.

What about the pEC170 (HepG2 [4]) of the same compound?
The pEC170 was 7.8.

Which “fold change (FC)” value (HepG2 [5]) does the source give for `CCCCC(=O)N1c2ccccc2C(Nc2ccccc2)CC1C` (mixture of isomers) here?
The value was “<=1.1”.

With `CCC(=O)N1c2ccccc2C(Nc2ccccc2)CC1C` (mixture of isomers) as the compound, how does the “fold change (FC)” value (HepG2 [6]) read?
Its value is 1.6.

What about the “fold change (FC)” value (HepG2 [5]) of the same compound?
Its value is 1.4.

For `CC(=O)N1c2ccc(-c3ccc(C(=O)O)cc3)cc2[C@H](Nc2ccc(C)cc2)C[C@@H]1C`, which IC50 [1] is on record?
Its IC50 is 0.2 µM.

And the IC50 [2]?
Its IC50 is 0.158 µM.

What about the IC50 [3] of the same compound?
The IC50 was 0.251 µM.

What about the pEC170 (HepG2 [4]) of the same compound?
Its pEC170 is 8.

For `CC(=O)N1c2ccc(-c3ccc(C(N)=O)cc3)cc2[C@H](Nc2ccc(Cl)cc2)C[C@@H]1C` (racemic), which IC50 [1] is on record?
The IC50 was 0.794 µM.

What about the IC50 [2] of the same compound?
Its IC50 is 0.398 µM.

What about the IC50 [3] of the same compound?
The IC50 was 0.501 µM.

What about the pEC170 (HepG2 [4]) of the same compound?
The pEC170 was 7.8.

Which IC50 [1] does the source give for `COC(=O)c1cccc(-c2ccc3c(c2)[C@H](Nc2ccc(Cl)cc2)C[C@H](C)N3C(C)=O)c1` (racemic) here?
The IC50 was 2 µM.

And the IC50 [2]?
The IC50 was 1 µM.

What about the IC50 [3] of the same compound?
Its IC50 is 1 µM.

What about the pEC170 (HepG2 [4]) of the same compound?
Its pEC170 is 7.2.

Which results are given for `CC(=O)N1c2ccc(-c3ccc(CN4CCCCC4)cc3)cc2[C@H](Nc2ccccc2)C[C@@H]1C`?
IC50 [1]: 0.501 µM; IC50 [2]: 0.316 µM; IC50 [3]: 0.398 µM; solubility ([7]; simulated gi fluid, 16 h): 0.125 mg/mL (≈ 276 µM); pEC170 (HepG2 [4]): 8; IC50 (PBMC): 0.00316 µM; IC50 (Blood): 0.0631 µM; CLH (Hepatocyte [8]): 1.8 mL/min/g; CLH (Hepatocyte [9]): 0.8 mL/min/g; CLH [10]: 0.9 mL/min/g; CLH [11]: 6 mL/min/g; IC50 (Cytochrome P450 1A2): > 33 µM; IC50 (Cytochrome P450 2C9): 14 µM; IC50 (Cytochrome P450 2C19): 20 µM; IC50 (Cytochrome P450 2D6): 8 µM; IC50 (Cytochrome P450 3A4 [12]): 10 µM; IC50 (Cytochrome P450 3A4 [13]): 2 µM

What does the source list for `CC(=O)N1c2ccc(-c3cccc(CN4CCCCC4)c3)cc2[C@H](Nc2ccccc2)C[C@@H]1C` (racemic)?
IC50 [1]: 1.26 µM; IC50 [2]: 0.398 µM; IC50 [3]: 0.794 µM; solubility at 16 h [7]: 0.099 mg/mL (≈ 218 µM); pEC170 (HepG2 [4]): 7.1

For `COc1ccc(-c2ccc3c(c2)[C@H](Nc2ccccc2)C[C@H](C)N3C(C)=O)cc1` (racemic), which IC50 [1] is on record?
Its IC50 is 1.26 µM.

What about the IC50 [2] of the same compound?
Its IC50 is 0.631 µM.

And the IC50 [3]?
Its IC50 is 0.631 µM.

What about the solubility at 16 h [7] of the same compound?
Its solubility at 16 h is 0.092 mg/mL (≈ 238 µM).

And the pEC170 (HepG2 [4])?
The pEC170 was 7.2.

For `CC(=O)N1c2ccc(-c3ccc(CN4CCCCC4)cc3)cc2[C@H](Nc2ccccc2)C[C@@H]1C` (racemic), which solubility at 16 h [7] is on record?
Its solubility at 16 h is 0.111 mg/mL (≈ 245 µM).

And the pEC170 (HepG2 [4])?
The pEC170 was 7.9.

With `CC(=O)N1c2ccc(-c3ccc(C(=O)O)cc3)cc2[C@H](Nc2ccccc2)C[C@@H]1C` (racemic) as the compound, how does the IC50 [1] read?
The IC50 was 0.631 µM.

What about the IC50 [2] of the same compound?
The IC50 was 0.398 µM.

What about the IC50 [3] of the same compound?
Its IC50 is 0.501 µM.

What about the solubility at 16 h [7] of the same compound?
Its solubility at 16 h is 0.118 mg/mL (≈ 295 µM).

And the pEC170 (HepG2 [4])?
Its pEC170 is 7.3.

With `CC(=O)N1c2ccc(-c3ccc(C#N)cc3)cc2[C@H](Nc2cccc(F)c2)C[C@@H]1C` (racemic) as the compound, how does the IC50 [1] read?
The IC50 was 1.26 µM.

And the IC50 [2]?
The IC50 was 0.794 µM.

What about the IC50 [3] of the same compound?
Its IC50 is 1 µM.

What about the pEC170 (HepG2 [4]) of the same compound?
Its pEC170 is 6.8.

Which results are given for `CC(=O)N1c2ccc(-c3ccc(CN4CCCCC4)cc3)cc2[C@H](NC=O)C[C@@H]1C` (racemic)?
IC50 [1]: 15.8 µM; IC50 [2]: 6.31 µM; IC50 [3]: 6.31 µM; pEC170 (HepG2 [4]): 5.3

Which IC50 [1] does the source give for `CC(=O)N1c2ccc(-c3cccc(C(=O)O)c3)cc2[C@H](Nc2ccc(Cl)cc2)C[C@@H]1C` (racemic) here?
The IC50 was 0.794 µM.

And the IC50 [2]?
Its IC50 is 0.501 µM.

And the IC50 [3]?
The IC50 was 0.794 µM.

And the pEC170 (HepG2 [4])?
The pEC170 was 7.4.

Which IC50 [1] does the source give for `CC(=O)N1c2ccc(-c3ccc(CN4CCOCC4)cc3)cc2[C@H](Nc2ccccc2)C[C@@H]1C` (racemic) here?
The IC50 was 0.794 µM.

And the IC50 [2]?
Its IC50 is 0.631 µM.

What about the IC50 [3] of the same compound?
The IC50 was 0.501 µM.

And the solubility at 16 h [7]?
The solubility at 16 h was 0.107 mg/mL (≈ 235 µM).

What about the pEC170 (HepG2 [4]) of the same compound?
Its pEC170 is 7.6.

For `CC(=O)N1c2ccccc2[C@@H](Nc2ccc(C)cc2)C[C@@H]1C` (racemic), which “fold change (FC)” value (HepG2 [6]) is on record?
Its value is 1.1.

Which “fold change (FC)” value (HepG2 [5]) does the source give for `CCCC(=O)N1c2ccccc2C(Nc2ccccc2)CC1C` (mixture of isomers) here?
The value was “<=1.1”.
